Drawing on patent US6555548B2, “Compounds for treating fibromyalgia and chronic fatigue syndrome” (Pharmacia & Upjohn Company, priority 2000, dated 2003), this text covers melting point for two compounds.

Each structure is given as a SMILES string.

Broadly, the melting point is the temperature of the solid-liquid transition. `CN[C@@H]1Cc2cccc3[nH]c(=S)n(c23)C1` yielded a melting point of 210 to 213 °C.

The compound `CN[C@@H]1Cc2cccc3[nH]c(=S)n(c23)C1.O=C(O)/C=C\C(=O)O` yielded a melting point of 195 to 196 °C.
